Experimental data from patent US6737383B1, “Herbicidal oxadiazolidines” (priority 1999, dated 2004).

What was measured:
bedstraw = assay: Test B pre/postemergence bedstraw; type: in vivo, Galium aparine
Summary of the method: (§1)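 Herbicidal effect was estimated by eye on a ten-point control scale after plants spent twelve to sixteen days in a greenhouse following soil or foliar treatment. Foliar sprays targeted plants at one to four leaves; all doses were formulated in a non-phytotoxic solvent with surfactant.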

surinam grass = assay: Test B pre/postemergence surinam grass; type: in vivo, Brachiaria decumbens
Summary of the method: as §1

cocklebur = assay: Test B pre/postemergence cocklebur; type: in vivo, Xanthium strumarium
Summary of the method: as §1

corn = assay: Test B pre/postemergence corn; type: in vivo, Zea mays
Summary of the method: as §1

giant foxtail = assay: Test B pre/postemergence giant foxtail; type: in vivo, Setaria faberii
Summary of the method: as §1

pigweed = assay: Test B pre/postemergence pigweed; type: in vivo, Amaranthus retroflexus
Summary of the method: as §1

rape = assay: Test B pre/postemergence rape; type: in vivo, Brassica napus
Summary of the method: as §1

soybean = assay: Test B pre/postemergence soybean; type: in vivo, Glycine max
Summary of the method: as §1

sugar beet = assay: Test B pre/postemergence sugar beet; type: in vivo, Beta vulgaris
Summary of the method: as §1

velvetleaf = assay: Test B pre/postemergence velvetleaf; type: in vivo, Abutilon theophrasti
Summary of the method: as §1

wheat = assay: Test B pre/postemergence wheat; type: in vivo, Triticum aestivum
Summary of the method: as §1

wild oat = assay: Test B pre/postemergence wild oat; type: in vivo, Avena fatua
Summary of the method: as §1

purple nutsedge = assay: Test B pre/postemergence purple nutsedge; type: in vivo, Cyperus rotundus
Summary of the method: as §1

rice = assay: Test B flood test rice; type: in vivo, Oryza sativa
Summary of the method: (§2)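 Flood test on plants grown to the 2-leaf stage; treated plants kept in greenhouse twelve to sixteen days, then visually rated against controls on a 0 (no effect) to 10 (complete control) scale.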

smallflower flatsedge = assay: Test B flood test smallflower flatsedge; type: in vivo, Cyperus difformis
Summary of the method: as §2

duck salad = assay: Test B flood test duck salad; type: in vivo, Heteranthera limosa
Summary of the method: as §2

[1] = Preemergence, Rate 62 g/ha, scale of 0 to 10 where 0 is no effect and 10 is complete control
[2] = Preemergence, Rate 250 g/ha, scale of 0 to 10 where 0 is no effect and 10 is complete control
[3] = Preemergence, Rate 500 g/ha, scale of 0 to 10 where 0 is no effect and 10 is complete control
[4] = Rate 62 g/ha, Postemergence, scale of 0 to 10 where 0 is no effect and 10 is complete control
[5] = Rate 125 g/ha, Postemergence, scale of 0 to 10 where 0 is no effect and 10 is complete control
[6] = Rate 125 g/ha, Preemergence, scale of 0 to 10 where 0 is no effect and 10 is complete control
[7] = Rate 250 g/ha, Postemergence, scale of 0 to 10 where 0 is no effect and 10 is complete control
[8] = Rate 500 g/ha, Postemergence, scale 0 to 10, 0 no effect, 10 complete control
[9] = Rate 62 g/ha, headed Pre-emergence (flood test species), scale 0 to 10 (0 no effect, 10 complete control)
[10] = Rate 125 g/ha, Pre-emergence, flood test species, scale 0 to 10 where 0 is no effect and 10 is complete control
[11] = Rate 250 g/ha, Pre-emergence, flood-test species, scale 0 to 10, 0 is no effect, 10 is complete control
[12] = Rate 500 g/ha, Pre-emergence, flood test species, scale 0 to 10 (0 no effect, 10 complete control)

## Cc1ccccc1-n1c(=O)on(C(=O)N(c2ccc(C(C)(C)C)cc2)C(C)C)c1=O [Compound 270]
bedstraw; [1]
  Bedstraw plant response rating: 0
bedstraw; [2]
  Bedstraw plant response rating: 0
bedstraw; [3]
  Plant response rating, Bedstraw: 0
bedstraw; [4]
  Bedstraw plant response rating: 0
bedstraw; [5]
  Bedstraw plant response rating: 0
bedstraw; [6]
  Bedstraw plant response rating: 0
bedstraw; [7]
  Plant response rating, Bedstraw: 0
bedstraw; [8]
  Bedstraw plant response rating: 0
Surinam grass; [1]
  B. signalgrass plant response rating: 0
Surinam grass; [2]
  B. signalgrass plant response rating: 0
Surinam grass; [3]
  Plant response rating, B. signalgrass: 0
Surinam grass; [4]
  B. signalgrass plant response rating: 0
Surinam grass; [5]
  B. signalgrass plant response rating: 0
Surinam grass; [6]
  B. signalgrass plant response rating: 0
Surinam grass; [7]
  Plant response rating, B. signalgrass: 0
Surinam grass; [8]
  B. signalgrass plant response rating: 0
cocklebur; [1]
  Cocklebur plant response rating: 0
cocklebur; [2]
  Cocklebur plant response rating: 0
cocklebur; [3]
  Plant response rating, Cocklebur: 0
cocklebur; [4]
  Cocklebur plant response rating: 0
cocklebur; [5]
  Cocklebur plant response rating: 0
cocklebur; [6]
  Cocklebur plant response rating: 0
cocklebur; [7]
  Plant response rating, Cocklebur: 0
cocklebur; [8]
  Cocklebur plant response rating: 0
corn; [1]
  Corn plant response rating: 0
corn; [2]
  Corn plant response rating: 0
corn; [3]
  Plant response rating, Corn: 0
corn; [4]
  Corn plant response rating: 0
corn; [5]
  Corn plant response rating: 0
corn; [6]
  Corn plant response rating: 0
corn; [7]
  Plant response rating, Corn: 0
corn; [8]
  Corn plant response rating: 0
Giant foxtail; [1]
  Giant foxtail plant response rating: 0
Giant foxtail; [2]
  Giant foxtail plant response rating: 0
Giant foxtail; [3]
  Plant response rating, Giant foxtail: 0
Giant foxtail; [5]
  Giant foxtail plant response rating: 0
Giant foxtail; [6]
  Giant foxtail plant response rating: 0
Giant foxtail; [7]
  Plant response rating, Giant foxtail: 0
Giant foxtail; [8]
  Giant foxtail plant response rating: 0
pigweed; [1]
  Redroot pigweed plant response rating: 0
pigweed; [2]
  Redroot pigweed plant response rating: 0
pigweed; [3]
  Plant response rating, Redroot pigweed: 0
pigweed; [5]
  Redroot pigweed plant response rating: 0
pigweed; [6]
  Redroot pigweed plant response rating: 0
pigweed; [7]
  Plant response rating, Redroot pigweed: 0
pigweed; [8]
  Redroot pigweed plant response rating: 0
rape; [1]
  Rape plant response rating: 0
rape; [2]
  Rape plant response rating: 0
rape; [3]
  Plant response rating, Rape: 0
rape; [5]
  Rape plant response rating: 0
rape; [6]
  Rape plant response rating: 0
rape; [7]
  Plant response rating, Rape: 0
rape; [8]
  Rape plant response rating: 0
soybean; [1]
  Soybean plant response rating: 0
soybean; [2]
  Soybean plant response rating: 0
soybean; [3]
  Plant response rating, Soybean: 0
soybean; [5]
  Soybean plant response rating: 0
soybean; [6]
  Soybean plant response rating: 0
soybean; [7]
  Plant response rating, Soybean: 2
soybean; [8]
  Soybean plant response rating: 2
Sugar beet; [1]
  Sugarbeets plant response rating: 0
Sugar beet; [2]
  Sugarbeets plant response rating: 0
Sugar beet; [3]
  Plant response rating, Sugarbeets: 0
Sugar beet; [5]
  Sugarbeets plant response rating: 0
Sugar beet; [6]
  Sugarbeets plant response rating: 0
Sugar beet; [7]
  Plant response rating, Sugarbeets: 0
Sugar beet; [8]
  Sugarbeets plant response rating: 0
velvetleaf; [1]
  Velvetleaf plant response rating: 0
velvetleaf; [2]
  Velvetleaf plant response rating: 0
velvetleaf; [3]
  Plant response rating, Velvetleaf: 0
velvetleaf; [5]
  Velvetleaf plant response rating: 0
velvetleaf; [6]
  Velvetleaf plant response rating: 0
velvetleaf; [7]
  Plant response rating, Velvetleaf: 0
velvetleaf; [8]
  Velvetleaf plant response rating: 0
wheat; [1]
  Wheat plant response rating: 0
wheat; [2]
  Wheat plant response rating: 0
wheat; [3]
  Plant response rating, Wheat: 0
wheat; [5]
  Wheat plant response rating: 0
wheat; [6]
  Wheat plant response rating: 0
wheat; [7]
  Plant response rating, Wheat: 0
wheat; [8]
  Wheat plant response rating: 0
Wild oat; [1]
  Wild oats plant response rating: 0
Wild oat; [2]
  Wild oats plant response rating: 0
Wild oat; [3]
  Plant response rating, Wild oats: 0
Wild oat; [5]
  Wild oats plant response rating: 0
Wild oat; [7]
  Plant response rating, Wild oats: 0
Wild oat; [8]
  Wild oats plant response rating: 0
Purple nutsedge; [1]
  Nutsedge plant response rating: 0
Purple nutsedge; [2]
  Nutsedge plant response rating: 0
Purple nutsedge; [3]
  Plant response rating, Nutsedge: 0
Purple nutsedge; [5]
  Nutsedge plant response rating: 0
Purple nutsedge; [6]
  Nutsedge plant response rating: 0
Purple nutsedge; [7]
  Plant response rating, Nutsedge: 0
Purple nutsedge; [8]
  Nutsedge plant response rating: 0
rice; [9]
  Rice plant response rating: 0
rice; [10]
  Rice plant response rating: 0
rice; [11]
  Rice plant response rating: 0
rice; [12]
  Rice plant response rating: 0
Smallflower flatsedge; [9]
  S. Flatsedge plant response rating: 0
Smallflower flatsedge; [10]
  S. Flatsedge plant response rating: 0
Smallflower flatsedge; [11]
  S. Flatsedge plant response rating: 0
Smallflower flatsedge; [12]
  S. Flatsedge plant response rating: 0
Duck salad; [9]
  Ducksalad plant response rating: 0
Duck salad; [10]
  Ducksalad plant response rating: 0
Duck salad; [11]
  Ducksalad plant response rating: 0
Duck salad; [12]
  Ducksalad plant response rating: 0
